Source: the NIST ThermoML archive (doi:10.1021/je100581m)

Experiment: xn = mol fraction of the nth substance listed
Conditions: Liquid, Vibrating tube method

C=CC(C)(O)CCC=C(C)C (stereo not given) [3,7-dimethyl-1,6-octadien-3-ol] + CC(C)O
mass density [kg/m3]
Conditions | x2 = 0 | x2 = 0.1031 | x2 = 0.2049 | x2 = 0.3054 | x2 = 0.4056 | x2 = 0.5022 | x2 = 0.605 | x2 = 0.7008 | x2 = 0.7981 | x2 = 0.9092
283.15 K, 100 kPa | 869.5 | 866.3 | 862.7 | – | 854.1 | 848.8 | 842.3 | 834.6 | – | 809.3
283.15 K, 5000 kPa | 872.6 | 869.5 | – | 861.9 | 857.4 | 852.2 | 845.7 | – | 828.2 | 813.1
283.15 K, 10000 kPa | 875.7 | – | 869 | 864.9 | 860.5 | 855.3 | – | 841.4 | 831.6 | 816.6
283.15 K, 15000 kPa | – | 875.5 | 872.1 | 868.1 | 863.7 | – | 852.2 | 844.9 | 835.1 | 820.4
283.15 K, 20000 kPa | 881.5 | 878.5 | 875 | 870.9 | – | 861.6 | 855.3 | 848 | 838.4 | –
283.18 K, 100 kPa | – | – | – | 858.7 | – | – | – | – | 824.5 | –
283.18 K, 5000 kPa | – | – | 865.9 | – | – | – | – | 838.1 | – | –
283.18 K, 10000 kPa | – | 872.5 | – | – | – | – | 848.9 | – | – | –
283.18 K, 15000 kPa | 878.7 | – | – | – | – | 858.6 | – | – | – | –
283.18 K, 20000 kPa | – | – | – | – | 866.7 | – | – | – | – | 823.7
298.15 K, 100 kPa | 857.3 | 854.1 | 850.5 | 846.3 | 841.7 | 836.4 | 829.7 | 821.9 | 812 | 796.8
298.15 K, 5000 kPa | 860.6 | 857.4 | 853.9 | 849.8 | 845.2 | 839.9 | 833.3 | 825.6 | 815.9 | 800.9
298.15 K, 10000 kPa | 863.9 | 860.8 | 857.3 | 853.2 | 848.7 | 843.5 | 837 | 829.4 | 819.7 | 804.9
298.15 K, 15000 kPa | 867 | 864 | 860.5 | 856.5 | 852 | 846.9 | 840.4 | 832.9 | 823.4 | 808.8
298.15 K, 20000 kPa | 870 | 867 | 863.6 | 859.6 | 855.2 | 850.1 | 843.7 | 836.4 | 826.9 | 812.4
313.15 K, 100 kPa | 844.5 | 841.4 | 837.7 | 833.4 | 828.7 | 823.2 | 816.4 | 808.5 | 798.6 | 783.6
313.15 K, 5000 kPa | 848.2 | 845.1 | 841.5 | 837.3 | 832.6 | 827.2 | 820.6 | 812.8 | 803 | 788.2
313.15 K, 10000 kPa | 851.6 | 848.6 | 845.1 | 840.9 | 836.3 | 831 | 824.4 | 816.8 | 807.1 | 792.5
313.15 K, 15000 kPa | 855 | 852.1 | 848.6 | 844.5 | 840 | 834.8 | 828.2 | 820.6 | 811.1 | 796.7
313.15 K, 20000 kPa | 858.4 | 855.4 | 852 | 847.9 | 843.5 | 838.3 | 831.8 | 824.4 | 814.9 | 800.7
328.15 K, 100 kPa | 831.7 | 828.5 | – | 820.4 | 815.5 | 809.9 | 802.8 | – | 784.8 | 769.8
328.15 K, 5000 kPa | 835.6 | – | 828.8 | 824.5 | 819.7 | 814.2 | – | 799.4 | 789.5 | 774.8
328.15 K, 10000 kPa | – | 836.4 | 832.8 | 828.6 | 823.9 | – | 811.6 | 803.9 | 794.2 | 779.7
328.15 K, 15000 kPa | 843.1 | 840.1 | 836.5 | 832.3 | – | 822.3 | 815.6 | 808 | 798.4 | –
328.15 K, 20000 kPa | 846.7 | 843.6 | 840.2 | – | 831.5 | 826.1 | 819.5 | 812 | – | 788.4
328.18 K, 100 kPa | – | – | 824.8 | – | – | – | – | 794.9 | – | –
328.18 K, 5000 kPa | – | 832.5 | – | – | – | – | 807.2 | – | – | –
328.18 K, 10000 kPa | 839.5 | – | – | – | – | 818.4 | – | – | – | –
328.18 K, 15000 kPa | – | – | – | – | 827.8 | – | – | – | – | 784.1
328.18 K, 20000 kPa | – | – | – | 836 | – | – | – | – | 802.6 | –

C=CC(C)(O)CCC=C(C)C (stereo not given) [3,7-dimethyl-1,6-octadien-3-ol] + CCO
mass density [kg/m3]
Conditions | x2 = 0 | x2 = 0.1129 | x2 = 0.1935 | x2 = 0.3045 | x2 = 0.4023 | x2 = 0.5121 | x2 = 0.6055 | x2 = 0.7008 | x2 = 0.8009 | x2 = 0.9009
283.15 K, 100 kPa | 869.2 | 866.8 | 865.6 | 862.7 | 859.9 | 855.3 | 850.3 | 843.1 | 832.7 | 818.2
283.15 K, 5000 kPa | 872.3 | 869.9 | 868.7 | 866 | 863.1 | 858.5 | 853.5 | 846.5 | 836.3 | 822
283.15 K, 10000 kPa | 875.2 | 872.9 | 871.7 | 869 | 866.1 | 861.6 | 856.8 | 849.7 | 839.6 | 825.5
283.15 K, 15000 kPa | 878.2 | 875.9 | 874.8 | 872.1 | 869.2 | 864.8 | 860.1 | 853 | 843.1 | 829.2
283.15 K, 20000 kPa | 881 | 878.8 | 877.6 | 874.9 | 872.1 | 867.7 | 862.9 | 856.1 | 846.3 | 832.5
298.15 K, 100 kPa | 856.9 | 854.5 | 853.4 | 850.5 | 847.6 | 843 | 838 | 830.9 | 820.6 | 805.9
298.15 K, 5000 kPa | 860.1 | 857.8 | 856.7 | 853.9 | 851 | 846.5 | 841.4 | 834.6 | 824.4 | 809.9
298.15 K, 10000 kPa | 863.5 | 861.1 | 860 | 857.2 | 854.4 | 850 | 845.1 | 838.2 | 828.1 | 813.9
298.15 K, 15000 kPa | 866.6 | 864.3 | 863.2 | 860.5 | 857.7 | 853.2 | 848.4 | 841.6 | 831.7 | 817.7
298.15 K, 20000 kPa | 869.6 | 867.4 | 866.3 | 863.6 | 860.8 | 856.4 | 851.7 | 844.9 | 835.1 | 821.3
313.15 K, 100 kPa | 844.1 | 841.7 | 840.6 | 837.8 | 834.7 | 830.2 | 825.3 | 818 | 807.9 | 793.2
313.15 K, 5000 kPa | 847.8 | 845.4 | 844.4 | 841.6 | 838.6 | 834.1 | 829.3 | 822.3 | 812.1 | 797.7
313.15 K, 10000 kPa | 851.3 | 849 | 847.9 | 845.2 | 842.3 | 837.8 | 833.1 | 826.1 | 816.1 | 801.9
313.15 K, 15000 kPa | 854.8 | 852.5 | 851.4 | 848.7 | 845.8 | 841.4 | 836.7 | 829.8 | 820 | 806
313.15 K, 20000 kPa | 858.1 | 855.8 | 854.8 | 852.1 | 849.2 | 844.9 | 840.2 | 833.4 | 823.7 | 809.8
328.15 K, 100 kPa | 831.3 | 828.9 | 827.8 | 824.9 | 821.8 | 817.3 | 812.3 | 805.2 | 794.9 | 780.2
328.15 K, 5000 kPa | 835.2 | 832.9 | 831.8 | 828.9 | 825.9 | 821.4 | 816.6 | 809.5 | 799.4 | 784.9
328.15 K, 10000 kPa | 839.1 | 836.9 | 835.8 | 832.9 | 829.9 | 825.5 | 820.6 | 813.9 | 803.9 | 789.6
328.15 K, 15000 kPa | 842.7 | 840.5 | 839.4 | 836.6 | 833.7 | 829.3 | 824.5 | 817.8 | 808 | 793.9
328.15 K, 20000 kPa | 846.3 | 844.1 | 843 | 840.3 | 837.3 | 833 | 828.4 | 821.6 | 811.9 | 798.1
